How the values were obtained:
[1] = 293.15 K; for surface tension liquid-gas: Pendant drop shape; for mass density: 101.33 kPa, Liquid
[2] = xn = mol fraction of the nth substance listed; conditions: 293.15 K; for surface tension liquid-gas: Pendant drop shape; for mass density: 101 kPa, Liquid

CO [methanol]
[1]
Conditions | mass density [kg/m3] | surface tension liquid-gas [mN/m]
– | 787.83 | 22.78

CCCCCO [pentan-1-ol]
[1]
Conditions | mass density [kg/m3] | surface tension liquid-gas [mN/m]
– | 815.11 | 25.46

CC#N [acetonitrile] + CCCO
[2]
Conditions | mass density [kg/m3] | surface tension liquid-gas [mN/m]
x1 = 0.1004 | 799.54 | 24.02
x1 = 0.2018 | 797.63 | 24.23
x1 = 0.3013 | 795.62 | 24.52
x1 = 0.5004 | 791.05 | 25.32
x1 = 0.7003 | 785.97 | 26.5
x1 = 0.8002 | 783.29 | 27.27
x1 = 0.8997 | 780.68 | 28.19

CCCCO [butan-1-ol]
[1]
Conditions | mass density [kg/m3] | surface tension liquid-gas [mN/m]
– | 807.33 | 24.5

CCO [ethanol]
[1]
Conditions | mass density [kg/m3] | surface tension liquid-gas [mN/m]
– | 786.44 | 22.31

CC#N [acetonitrile] + CCCCO
[2]
Conditions | mass density [kg/m3] | surface tension liquid-gas [mN/m]
x1 = 0.1026 | 805.36 | 24.65
x1 = 0.2021 | 803.18 | 24.78
x1 = 0.302 | 800.8 | 24.94
x1 = 0.5024 | 795.42 | 25.52
x1 = 0.7014 | 789.23 | 26.53
x1 = 0.8007 | 785.7 | 27.25
x1 = 0.8995 | 782.01 | 28.14

CC#N [acetonitrile]
[1]
Conditions | mass density [kg/m3] | surface tension liquid-gas [mN/m]
– | 778.3 | 29.25

CCCO [propan-1-ol]
[1]
Conditions | mass density [kg/m3] | surface tension liquid-gas [mN/m]
– | 801.3 | 23.78

CC#N [acetonitrile] + CCO
[2]
Conditions | mass density [kg/m3] | surface tension liquid-gas [mN/m]
x1 = 0.0999 | 786.57 | 22.81
x1 = 0.2007 | 785.99 | 23.3
x1 = 0.3039 | 785.05 | 23.85
x1 = 0.5001 | 783.08 | 25.06
x1 = 0.6994 | 780.89 | 26.51
x1 = 0.8013 | 779.8 | 27.36
x1 = 0.8996 | 778.91 | 28.26

CCCCCO [pentan-1-ol] + CC#N
[2]
Conditions | mass density [kg/m3] | surface tension liquid-gas [mN/m]
x2 = 0.1003 | 812.2 | 25.49
x2 = 0.2031 | 809.06 | 25.54
x2 = 0.3014 | 806.03 | 25.57
x2 = 0.5003 | 799.64 | 25.82
x2 = 0.7 | 792.42 | 26.64
x2 = 0.8001 | 788.11 | 27.29
x2 = 0.8993 | 783.38 | 28.11

CC#N [acetonitrile] + CO
[2]
Conditions | mass density [kg/m3] | surface tension liquid-gas [mN/m]
x1 = 0.1001 | 788.46 | 23.8
x1 = 0.2011 | 788.04 | 24.73
x1 = 0.2996 | 787.13 | 25.53
x1 = 0.4997 | 784.82 | 26.85
x1 = 0.7012 | 782.13 | 27.94
x1 = 0.8009 | 780.75 | 28.42
x1 = 0.8956 | 779.47 | 28.85

Reference: the NIST ThermoML archive (doi:10.1021/je050519g)
